{"source": "patent US20220296590A1", "about": "“STEREOISOMERS OF THE COMPOUND 3-(BENZO[D][1,3]DIOXOL-5-YL)-7-(1-HYDROXYPROPAN-2-YL)-1-(1H-INDOL-3-YL)-6,7-DIHYDRO-3H-OXAZOL[3,4-A]PYRAZINE-5,8-DIONE AND USE THEREOF AS AN ANTITUMOR AGENT AND PHOSPHODIESTERASE ENZYME INHIBITOR” (BIOLAB SANUS FARMACEUTICA LTDA, priority 2019, published 2022)", "key": {"[1]": {"target": "T1, PDE5A1 enzyme (Homo sapiens, UniProt O76074)", "T1 construct": "purchased BPS Bioscience 60350", "experiment": "In vitro inhibition of human phosphodiesterase enzyme 5 (BPS Bioscience PDE5A1 assay kit, fluorescence polarization)", "format": "biochemical", "experimental": "The evaluation of the compound is studied using BPS Bioscience enzyme assay kit (catalogue 60350). The PDE5A1 Assay kit is designed for identification of PDE5A1 inhibitors using fluorescence polarization. The assay is based on the binding of a fluorescent nucleotide monophosphate generated by PDE5A1 enzyme to the binding agent.\nIn this methodology only two simple steps on a microtiter plate are required for PDE5A1 reactions. First, the fluorescently labeled cGMP is incubated with PDE5A1 for 1 hour. Second, the binding agent is added to the reaction mixture to produce a change in fluorescent polarization that can then be measured using a fluorescence reader equipped for the measurement of fluorescence polarization.\nFor the assay the storage reagent FAM-Cyclic-3′, 5′-GMP (20 μM) is diluted with PDE assay buffer to achieve the solution with a […] concentration; the PDE5A1 enzyme is thawed and diluted with the PDE buffer obtaining a PDE5A1 solution at 10 pg/mL.\nThe assay compounds are diluted with DMSO 100% (v/v) at a concentration of 1000 μM and subsequently diluted in a Sodium chloride 0.9% solution to obtain a curve of concentrations of interest for the assay. The compounds are diluted in concentrations of: 10 nM, 30 nM, 50 nM, 100 nM, 300 nM, 500 nM, 1 μM, 3 μM, 5 μM (DMSO 10% v/v).\nThe study is comprised of groups: (i) substrate control; (ii) positive control (KIT); (iii) samples in several concentrations; (iv) tadalafil (comparative control). Each parameter (group) is triple labeled.\nFor the 4 groups there is added, to each microplate well, […] of the FAM-Cyclic-3′ reagent, 5′-GMP (200 μM).\nTo the substrate control group there is added, to each well, […] of vehicle (DMSO 10% v/v) and […] PDE Buffer.\nTo the positive control group there is added, to each well, […] of vehicle (DMSO 10% v/v).\nTo the tadalafil group: there is added […] of the solution in the concentrations of interest.\nTo the test group there is added […] of the sample solution (test compound)\nOBSERVATION: the parameters tested are in triplicate.\nTo begin the reaction, add […] of the PDE5A1 enzyme (diluted as described above) to the microplate wells designated as Positive Control and Samples (test and tadalafil), and incubate the microplate, for 1 hour, at a temperature of 25° C.\nAfter the incubation period, the reaction is interrupted by the addition, in all the wells, of […] of the binding agent solution and the microplate is incubated for 30 minutes, under light stirring, at room temperature. The reading of the microplate is carried out in Polarized Fluorescence (475-495 nm—excitation and 518-538 nm—emission detection) 500 nanoseconds integration time."}, "[2]": {"system": "DU145-human prostate cancer", "experiment": "Antiproliferative effect in tumor cell culture (CYQuant intracellular DNA, 72 hours), DU145", "format": "cell-based", "conditions": "for % Cell Proliferation Inhibition (intracellular DNA) DU145 (average ± E.P.M.): 72 hours", "experimental": "(§1) For the execution of the assay, the compounds are diluted in DMSO 100% (v/v) at a concentration of 1000 μM and subsequently diluted in a Sodium Chloride solution 0.9% to obtain the storage solutions of interest for use in the assays. The final concentration of interest will be directly diluted in the cell culture medium. For the assay there are used the following tumor cell lineages: PC3-human prostate cancer cells; LNCAP-human prostate cancer cells; DU145-human prostate cancer; MNK45-human gastric cancer and RT4-human bladder cancer cells. The tumor cell lineages are maintained in culture according to standard procedures established by the Cell Bank of Rio de Janeiro (lineage place of origin). For the assay, the tumor cells are seeded in the concentration of 10.000 cells per well (final volume of the reaction of […]), the plate is incubated for 8 hours, for the cells to adhere to the wall of the wells. After this period, the plate is divided in groups: • (a) test group: […] of the samples were added (test compound) in the concentrations of interest; • (b) positive control group: […] of culture medium were added (100% of cell proliferation); • (c) negative control group: 200 mL of culture medium and […] of the vehicle used were added to dilute the compounds (without cells—zero proliferation); • (d) control group: […] were added of the vehicle used to dilute the compounds. This group is important to evaluate whether the vehicle used interferes in the cell proliferation. OBSERVATION: the treatment with the concentrations of samples (test compounds) and of the controls are carried out in triplicate. Incubate the plate for 72 hours in a CO2 kiln at 37° C. After the incubation period, add […]/well of the solution with DNA marker from the CYQuant Kit and incubate the plate, for 60 minutes, in a CO2 incubator at 37° C. The fluorescence intensity is determined using a fluorescence microplate reader with 485 nm excitation and 530 nm emission detection. The results obtained were normalized relative to the positive control group (100% proliferation). For the compounds there are prepared the storage solutions in the concentrations of: 100 nM, 1 μM, 3 μM, 5 μM, 10 μM and 30 μM (DMSO 10% v/v). While the final concentrations in the test are of: 10 nM, 100 nM, 300 nM, 500 nM, 1000 nM and 3000 nM (in DMSO 1% v/v)."}, "[3]": {"system": "LNCAP-human prostate cancer cells", "experiment": "Antiproliferative effect in tumor cell culture (CYQuant intracellular DNA, 72 hours), LNCAP", "format": "cell-based", "conditions": "for % Cell Proliferation Inhibition (intracellular DNA) LNCAP (average ± E.P.M.): 72 hours", "experimental": "as §1"}, "[4]": {"system": "MNK45-human gastric cancer", "experiment": "Antiproliferative effect in tumor cell culture (CYQuant intracellular DNA, 72 hours), MNK45", "format": "cell-based", "experimental": "as §1"}, "[5]": {"system": "PC3-human prostate cancer cells", "experiment": "Antiproliferative effect in tumor cell culture (CYQuant intracellular DNA, 72 hours), PC3", "format": "cell-based", "conditions": "for % Cell Proliferation Inhibition (intracellular DNA) PC-3 (average ± E.P.M.): 72 hours", "experimental": "as §1"}, "[6]": {"system": "RT4-human bladder cancer cells", "experiment": "Antiproliferative effect in tumor cell culture (CYQuant intracellular DNA, 72 hours), RT4", "format": "cell-based", "conditions": "for % Cell Proliferation Inhibition (intracellular DNA) RT4 (average ± E.P.M.): 72 hours", "experimental": "as §1"}}, "data": [{"smiles": "CC(CO)N1CC(=O)N2C(=C(c3c[nH]c4ccccc34)OC2c2ccc3c(c2)OCO3)C1=O", "note": "(mixture of isomers) [BL-241, (R)-3-(benzo[d][1,3]dioxol-5-yl)-7-((S)-1-hydroxypropan-2-yl)-1-(1H-indole-3-yl)-6,7-dihydro-3H-oxazole[3,4-a]pyrazine-5,8-dione with (S)-3-(benzo[d][1,3]dioxol-5-yl)-7-((S)-1-hydroxypropan-2-yl)-1-(1H-indole-3-yl)-6,7-dihydro-3H -oxazole[3,4-a]pyrazine-5,8-dione]", "values": [{"measurement": "% of Inhibition (PDE5A1)", "setting": "[1]; 500 nM, 0.5 µM", "result": 57, "unit": "%"}, {"measurement": "% of Inhibition (PDE5A1)", "setting": "[1]; 1000 nM, 1 µM", "result": 71, "unit": "%"}, {"measurement": "% of Inhibition (PDE5A1)", "setting": "[1]; 3000 nM, 3 µM", "result": 88, "unit": "%"}, {"measurement": "PDE5 inhibition, result in words", "setting": "[1]; over the concentrations tested", "result": "capable of inhibiting the PDE5 in a dose-dependent manner"}, {"measurement": "% Cell Proliferation Inhibition (intracellular DNA) DU145 (average ± E.P.M.)", "setting": "[2]; 100 nM, 0.1 µM", "result": "33 ± 8", "unit": "%"}, {"measurement": "% Cell Proliferation Inhibition (intracellular DNA) DU145 (average ± E.P.M.)", "setting": "[2]; 300 nM, 0.3 µM", "result": "17 ± 3", "unit": "%"}, {"measurement": "% Cell Proliferation Inhibition (intracellular DNA) DU145 (average ± E.P.M.)", "setting": "[2]; 500 nM, 0.5 µM", "result": "18 ± 2", "unit": "%"}, {"measurement": "% Cell Proliferation Inhibition (intracellular DNA) DU145 (average ± E.P.M.)", "setting": "[2]; 1000 nM, 1 µM", "result": "22 ± 2", "unit": "%"}, {"measurement": "% Cell Proliferation Inhibition (intracellular DNA) DU145 (average ± E.P.M.)", "setting": "[2]; 3000 nM, 3 µM", "result": "43 ± 5", "unit": "%"}, {"measurement": "antiproliferative effect, result in words", "setting": "[2]; DU145 prostate cancer tumor lineage", "result": "antiproliferative effect"}, {"measurement": "% Cell Proliferation Inhibition (intracellular DNA) LNCAP (average ± E.P.M.)", "setting": "[3]; 10 nM, 0.01 µM", "result": "25 ± 2", "unit": "%"}, {"measurement": "% Cell Proliferation Inhibition (intracellular DNA) LNCAP (average ± E.P.M.)", "setting": "[3]; 100 nM, 0.1 µM", "result": "37 ± 3", "unit": "%"}, {"measurement": "% Cell Proliferation Inhibition (intracellular DNA) LNCAP (average ± E.P.M.)", "setting": "[3]; 300 nM, 0.3 µM", "result": "38 ± 4", "unit": "%"}, {"measurement": "% Cell Proliferation Inhibition (intracellular DNA) LNCAP (average ± E.P.M.)", "setting": "[3]; 500 nM, 0.5 µM", "result": "44 ± 2", "unit": "%"}, {"measurement": "% Cell Proliferation Inhibition (intracellular DNA) LNCAP (average ± E.P.M.)", "setting": "[3]; 1000 nM, 1 µM", "result": "34 ± 6", "unit": "%"}, {"measurement": "antiproliferative effect, result in words", "setting": "[3]; LNCAP prostate cancer tumor lineage", "result": "antiproliferative effect"}, {"measurement": "% Cell Proliferation Inhibition (intracellular DNA) MNK45 (average ± E.P.M.)", "setting": "[4]; 100 nM, 0.1 µM", "result": "25 ± 1", "unit": "%"}, {"measurement": "% Cell Proliferation Inhibition (intracellular DNA) MNK45 (average ± E.P.M.)", "setting": "[4]; 300 nM, 0.3 µM", "result": "10 ± 2", "unit": "%"}, {"measurement": "% Cell Proliferation Inhibition (intracellular DNA) MNK45 (average ± E.P.M.)", "setting": "[4]; 500 nM, 0.5 µM", "result": "2 ± 1", "unit": "%"}, {"measurement": "% Cell Proliferation Inhibition (intracellular DNA) MNK45 (average ± E.P.M.)", "setting": "[4]; 1000 nM, 1 µM", "result": "4 ± 1", "unit": "%"}, {"measurement": "% Cell Proliferation Inhibition (intracellular DNA) MNK45 (average ± E.P.M.)", "setting": "[4]; 3000 nM, 3 µM", "result": "20 ± 3", "unit": "%"}, {"measurement": "% Cell Proliferation Inhibition (intracellular DNA) PC-3 (average ± E.P.M.)", "setting": "[5]; 10 nM, 0.01 µM", "result": "27 ± 11", "unit": "%"}, {"measurement": "% Cell Proliferation Inhibition (intracellular DNA) PC-3 (average ± E.P.M.)", "setting": "[5]; 100 nM, 0.1 µM", "result": "36 ± 7", "unit": "%"}, {"measurement": "% Cell Proliferation Inhibition (intracellular DNA) PC-3 (average ± E.P.M.)", "setting": "[5]; 300 nM, 0.3 µM", "result": "42 ± 6", "unit": "%"}, {"measurement": "% Cell Proliferation Inhibition (intracellular DNA) PC-3 (average ± E.P.M.)", "setting": "[5]; 500 nM, 0.5 µM", "result": "46 ± 1", "unit": "%"}, {"measurement": "% Cell Proliferation Inhibition (intracellular DNA) PC-3 (average ± E.P.M.)", "setting": "[5]; 1000 nM, 1 µM", "result": "33 ± 3", "unit": "%"}, {"measurement": "antiproliferative effect, result in words", "setting": "[5]; PC3 prostate cancer tumor lineage", "result": "antiproliferative effect"}, {"measurement": "% Cell Proliferation Inhibition (intracellular DNA) RT4 (average ± E.P.M.)", "setting": "[6]; 100 nM, 0.1 µM", "result": "28 ± 6", "unit": "%"}, {"measurement": "% Cell Proliferation Inhibition (intracellular DNA) RT4 (average ± E.P.M.)", "setting": "[6]; 300 nM, 0.3 µM", "result": "5 ± 2", "unit": "%"}, {"measurement": "% Cell Proliferation Inhibition (intracellular DNA) RT4 (average ± E.P.M.)", "setting": "[6]; 500 nM, 0.5 µM", "result": "4 ± 2", "unit": "%"}, {"measurement": "% Cell Proliferation Inhibition (intracellular DNA) RT4 (average ± E.P.M.)", "setting": "[6]; 1000 nM, 1 µM", "result": "11 ± 8", "unit": "%"}, {"measurement": "% Cell Proliferation Inhibition (intracellular DNA) RT4 (average ± E.P.M.)", "setting": "[6]; 3000 nM, 3 µM", "result": "57 ± 4", "unit": "%"}, {"measurement": "antiproliferative effect, result in words", "setting": "[6]; RT4 bladder cancer tumor lineage", "result": "antiproliferative effect"}]}]}
